Values of other authors in patent publication US20050267091A1 (priority 2004, published 2005).

What was measured:
[1] = not given; remark: listed apart in the source
[2] = in vivo

COCc1c(C(C)C)nc(C(C)C)c(/C=C/[C@@H](O)C[C@@H](O)CC(=O)O)c1-c1ccc(F)cc1 [Baycol®, cervastatin]
deaths linked to the drug (market withdrawal August 2001): 31 deaths

CC(C)c1nc(N(C)S(C)(=O)=O)nc(-c2ccc(F)cc2)c1/C=C/[C@@H](O)C[C@@H](O)CC(=O)O [Crestor®, rosuvastatin]
cases of serious side effects (cited by consumer advocacy group, March 2004): 16 cases

O=C(O)c1cccnc1 [Niacin]
patients affected by flushing (redness) of the face and neck ([1]; most common side effect): more than three quarters of patients | patients who discontinue because of adverse effects ([1]; patients treated with standard niacin): more than 40% | increase of blood levels of HDL cholesterol [2]: up to 35% | reduction of total cholesterol [2]: up to 15% | reduction of triglyceride levels [2]: up to 30%
